Assay: gradient 5% acetonitrile 3 min, to 50% in 2 min, to 85% in 15 min, held 3 min, 100 µL/min
Settings: column: Zorbax Extend-C18 2.1 x 50 mm; eluents: water / acetonitrile, 0.1% formic acid
In short: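 Standards, all pure, were combined into mixtures of ~100 molecules and run at 100 μL/min on a Zorbax Extend-C18 column (2.1 × 50 mm, 1.8 μm) with water and acetonitrile, each containing 0.1% formic acid. A coupled quadrupole time-of-flight mass spectrometer operated in positive and negative ionization mode. Retention time values come from computationally picked adduct peaks, each inspected manually.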

Row | Structure (SMILES) | RP-LC retention time [s]
1 | Cc1ccc(C)c(NC(=O)NCCn2nnc3cc(C(=O)N(C)C)ccc32)c1 | 664
2 | COC(=O)C1=CN(c2ccc(N(C)C)cc2)c2ccccc2S1(=O)=O | 883
3 | COCCOCc1nc(C2CCCN2C(=O)c2cccs2)no1 (stereo not given) | 690
4 | CCOC(=O)C(C)(C)Sc1nnc(NC(=O)C2CCN(S(C)(=O)=O)CC2)s1 | 721
5 | CCN1CCn2cc(S(=O)(=O)NCc3ccccc3C(F)(F)F)cc2C1=O | 760
6 | COc1ccc(-c2noc(CSc3nccn3-c3ccc(C)cc3)n2)cc1OC | 856
7 | CNC(=O)N1CCC(CCc2nc(C3CCOCC3)no2)CC1 | 648
8 | O=C(Nc1nc2c(s1)COCC2)c1cccs1 | 664
9 | COc1ccc(-c2ccnc3nc(CCc4ccccc4)nn23)cc1OC | 879
10 | C=CCNC(=O)c1ccc2c(c1)N(C)C(=O)CS2 | 671
11 | Cc1onc(-c2cccc(Br)c2)c1C(=O)NCCCN1CCOCC1 | 629
12 | CC(C)OCCCNC(=O)C(C)n1c2ccccc2c2cnn(C)c(=O)c21 (stereo not given) | 803
13 | Cc1cc(-c2ccc(NC(=O)c3cccs3)c(C)c2)ccc1NC(=O)c1ccsc1 | 878
14 | CCN1CCC2(CC1)OC(=O)C(C)=C2C(=O)NCCCc1ccccc1 | 654
15 | O=C(c1ccc(Br)cc1)N1CCc2nc[nH]c2C1 | 578
16 | CCSc1nc2ccc(NS(=O)(=O)c3ccccc3Cl)cc2s1 | 1030
17 | CCOC(=O)CNC(=O)N1CCc2nc(-c3ccccc3)ncc2C1 | 720
18 | CCN1CCC2(CC1)NC(=O)N(CC(=O)Nc1ccc(OC(F)(F)F)cc1)C2=O | 582
19 | Cn1c(=O)c(C(=O)NC2CC2)nc2ccccc21 | 644
20 | Cc1sc2cc(C(=O)NCC3CC3)[nH]c2c1CN1CCCCC1 | 634
21 | Cc1cc(=O)n(CC(=O)Nc2ccc(F)cc2Cl)c(N2CCCCC2)n1 | 718
22 | CCCS(=O)(=O)NCCn1c(C)cnc1-c1ccccc1 | 566
23 | Cc1nn(-c2ccccc2)c(C)c1CCC(=O)NCCN(C)C | 590
24 | COc1ccc(C)cc1NC(=O)CCCn1cccc1 | 876
25 | CN(C)c1nn(CC(=O)Nc2ccc(S(C)(=O)=O)cc2)cc1-c1ccccc1 | 786
26 | COc1ccc(S(=O)(=O)Nc2ccc3c(c2)CCC(=O)N3CC(C)C)cc1 | 832
27 | Cc1sc2ccn(Cc3ccc(F)cc3)c(=O)c2c1C(=O)NCCN1CCCC1 | 662

Row | Structure (SMILES) | RP-LC retention time [s]
28 | CCc1noc(NC(C)=O)c1-c1ccc(OC)c(S(=O)(=O)Nc2ccc(Cl)cc2F)c1 | 842
29 | COc1ccc(OC)c(NC(=O)CN2C(=O)CCc3cc(Br)ccc32)c1 | 962
30 | CCOc1cc(C2C(C(=O)OC(C)C)=C(C)N=C3SCCC(=O)N32)ccc1OC(C)=O (stereo not given) | 908
31 | Cc1nn(CC(=O)NCC(C)C)c(=O)c2nc(-c3ccccc3)sc12 | 830
32 | Cc1sc(NC(=O)c2ccco2)nc1-c1ccc2c(c1)NC(=O)CO2 | 770
33 | Nc1nnc(C2CC(=O)N(c3ccccc3)C2)o1 (stereo not given) | 570
34 | CCC1=NS(=O)(=O)c2cccnc2N1c1ccc(OC)cc1 | 819
35 | COc1ccc(-c2noc(-c3nn(-c4ccc(C)c(C)c4)ccc3=O)n2)cc1 | 923
36 | Cc1cc(=O)n(CC(=O)Nc2cc(F)cc(F)c2)c(N2CCCCC2)n1 | 733
37 | CCOC(=O)C1CCCN(C(=O)CCCOc2cc(=O)n(C)c3ccccc23)C1 (stereo not given) | 800
38 | Cc1ccc(Nc2c(-c3ccccc3O)nc3ccc(Cl)cn23)cc1 | 1080
39 | CC(CCc1ccccc1)NC(=O)c1cc2sccc2n1Cc1ccc(Cl)cc1 (stereo not given) | 1260
40 | Cc1cc2c(cc1S(=O)(=O)N1CCCC1C(=O)N(Cc1ccccc1)C(C)C)OCC(=O)N2 (stereo not given) | 837
41 | O=C(CN1C(=O)CCSc2ccccc21)NCc1ccc(F)cc1 | 794
42 | CN1C(=O)c2cccn2CC1CNS(=O)(=O)Cc1ccccc1F (stereo not given) | 670
43 | COc1cc(-c2noc(Cn3ncn4nc(-c5cc(C)ccc5C)cc4c3=O)n2)cc(OC)c1OC | 1140
44 | Cc1ccc2c(c1)N(S(C)(=O)=O)CCC(C(=O)NC1CCCCC1)O2 (stereo not given) | 914
45 | Cc1ccc(N2C(=O)CN(S(=O)(=O)c3ccccc3)CC2(C)C(=O)NCc2ccc(F)cc2)cc1 (stereo not given) | 875
46 | CCCNC(=O)N1CCc2c(c(-c3nc(Cc4ccccc4)no3)nn2C)C1 | 780
47 | Cc1noc(C2CN(S(=O)(=O)c3ccccc3)CC23CCOCC3)n1 (stereo not given) | 767
48 | Cc1ccc(-c2cn(CC(=O)Nc3cc(C)ccc3C)c(=O)o2)cc1 | 954
49 | CCOc1ccc(-c2noc(Cn3c(=O)n(CC(C)C)c(=O)c4ccccc43)n2)cc1 | 1210
50 | Cc1ccc2c(c1)N(S(C)(=O)=O)CCC(C(=O)NCc1ccccc1C)O2 (stereo not given) | 900
51 | O=C(CSc1nnc(-c2ccco2)n1-n1cccc1)Nc1cccc(C(F)(F)F)c1 | 897
52 | CCCCC(=O)Nc1ccc(N2CCOCC2)cc1C(=O)O | 578
53 | Cc1nc(C2CCOCC2)n(C2CCN(S(=O)(=O)c3ccc(C(C)(C)C)cc3)C2)n1 (stereo not given) | 871
54 | CCNC(=O)c1cc(C)nc2c(C)cccc12 | 568

Next, values leading:

Row | RP-LC retention time [s] | Structure (SMILES)
55 | 671 | CC(=O)N1CCc2cc(N3CC(C(=O)NCc4ccccc4)CC3=O)ccc21 (stereo not given)
56 | 1150 | COc1ccc(-c2nnc(-c3cc(S(=O)(=O)N4CCCCC4)ccc3Cl)o2)cc1
57 | 588 | CC(C)N1CCN(C(=O)c2ccc(-c3cccs3)nc2)CC1
58 | 852 | CC1CCN(S(=O)(=O)c2ccc3nc(N4CCN(C(=O)c5ccco5)CC4)ccc3c2)CC1
59 | 732 | COc1ccc(NC(=O)C2CCCN(S(=O)(=O)c3c[nH]c(C(=O)N4CCCC4)c3)C2)cc1 (stereo not given)
60 | 669 | CCNc1cc(N2CCC(CCC(=O)NCc3ccc(F)cc3F)CC2)ncn1
61 | 618 | Cc1ccc(C)c(CN2CCC(CNC(=O)C3CCN(c4cc(=O)n(C)c(=O)n4C)CC3)CC2)c1
62 | 580 | Cc1cc(C)c2c(N3CCSCC3)nc(C(=O)N3CCN(CC(C)C)CC3)nc2n1
63 | 710 | Clc1ccc(-c2nnc(-c3cccnc3N3CCN(c4ccccn4)CC3)o2)cc1
64 | 837 | O=C(NC1CC1)c1ccc(OCC2CCN(C(=O)c3c(F)cccc3Cl)CC2)cc1
65 | 670 | CS(=O)(=O)N1CCCN(C(=O)c2ccc(F)cc2)CC1
66 | 885 | COc1cccc(C(=O)N2CCCn3nc(-c4ccc(C)cc4)cc3C2)c1OC
67 | 622 | Cc1nc(-c2cn(C(C)C)c3ncccc23)sc1C(=O)N1CCN(C(C)C)CC1
68 | 859 | COc1ccc(NC(=O)C2CCN(S(=O)(=O)c3c(C)nn(-c4ccccc4)c3C)CC2)cc1OC
69 | 1020 | O=C(CN1CCN(C(=O)Nc2ccc(Br)cc2)CC1=O)Nc1ccc(F)cc1F
70 | 686 | COc1ccccc1N1CCN(C(=O)C2CC(=O)N(c3n[nH]c4cccc(F)c34)C2)CC1 (stereo not given)
71 | 784 | O=C(NCc1ccc(F)cc1)C1CCN(C(=O)c2ncn3c2COC(c2ccc(F)cc2)C3)CC1 (stereo not given)
72 | 819 | COc1ccc(NC(=O)C2CCCN(S(=O)(=O)c3c[nH]c(C(=O)N4CCCC4)c3)C2)cc1Cl (stereo not given)

Row | RP-LC retention time [s] | Structure (SMILES)
73 | 616 | O=C(NC1CCN(c2cc(-c3cccnc3)[nH]n2)CC1)c1ccc2cc[nH]c2c1
74 | 566 | CCN1CCN(CCCNC(=O)C2CCCN(C(=O)c3cc4sccc4n3CC)C2)CC1 (stereo not given)
75 | 711 | CNC(=O)N1CCCN(C2=NS(=O)(=O)C(c3ccc(C)c(C)c3)=C2C)CC1
76 | 576 | O=C(c1ccccc1OCC1CCCNC1)N1CCOCC1 (stereo not given)
77 | 894 | Cc1ccc(CNC(=O)C2(C)CCN(C(=O)c3ccccc3C(F)(F)F)CC2)cc1
78 | 694 | O=C(c1cc(-c2cccnc2)n[nH]1)N1CCC(C(=O)N2CCN(c3ccc(Cl)cc3)CC2)CC1
79 | 585 | CCC(=O)Nc1cc(C(=O)NCc2ccc(N3CCOCC3)cc2)c2ccc(C)nc2c1
80 | 767 | CC(C)C(=O)N1CCN(c2ccc(=O)n(-c3ccc(Cl)cc3)n2)CC1
81 | 902 | O=C(NC1CCCCC1)C1CCN(S(=O)(=O)c2cc(C(=O)N3CCCCCC3)cs2)CC1
82 | 718 | Cn1nc(C(=O)N2CCCC2)c2c1CCN(C(=O)Nc1ccc(F)cc1F)C2
83 | 681 | CC(C(=O)N1CCC(N2CCCCC2)CC1)C1CCN(S(=O)(=O)c2ccc(Cl)s2)CC1 (stereo not given)
84 | 835 | COc1ccc(CNC(=O)C2=C3CCCN3c3ccccc3S2(=O)=O)c(OC)c1
85 | 665 | CNC(=O)C1CN(C(=O)c2ccccc2Cl)CC12CCCC2 (stereo not given)
86 | 852 | Cc1nc(N2CCCC2)c2c(C(=O)Nc3cccc(Cl)c3)c(C)oc2n1
87 | 847 | O=C(CC1CCCC1)NCCC1CCN(C(=O)Nc2cc(F)ccc2F)CC1
88 | 748 | O=C(NCc1ccccc1)C1CCCN(S(=O)(=O)c2c[nH]c(C(=O)N3CCCC3)c2)C1 (stereo not given)
89 | 745 | CN1c2ccc(F)cc2C(=O)NC12CCN(C(=O)c1ccccc1F)CC2
90 | 828 | Cc1ccc(NC(=O)Cn2nc(C(=O)N3CCCC3)c3ccccc32)cc1C
